The record followed here is patent US20090042894A1, “NOVEL SPECIES OF ACROCARPOSPORA, A METHOD OF PREPARING IODININ, AND THE USES OF IODININ” (FOOD INDUSTRY RESEARCH AND DEVELOPMENT INSTITUTE, priority 2007, published 2009).

Holding throughout (type): cell-based
What all share (conditions): iodinin 10 μg/ml, 72 hours

The subject of experiment [1] is HeLa (Human cervical epithelioid carcinoma). As to the kind of experiment: MTT assay, cytotoxic effect on HeLa cells. As for the experimental part: (§1) Cell growth inhibitory effects were determined by an MTT assay after treating the cell lines with 2, 5, and 10 μg/ml of iodinin for 72 hours. Mean±SE of four independent experiments are shown. The cytotoxic activity of the compound iodinin was tested in vitro in MRC-5, AGS, HeLa, HepG2 and MCF-7 cell lines.
(§2) MRC-5 (embryonal lung, normal, human, BCRC60023), AGS (Human gastric adenocarcinoma, BCRC 60102), HeLa (Human cervical epithelioid carcinoma, BCRC 60005), HepG2 (Human hepatoblastoma, BCRC 60177), and MCF7 (human breast adenocarcinoma, BCRC 60436) were purchased from BCRC, Food Industry Research and Development Institute, Taiwan. […]
(§3) The cytotoxic activities of the compound, iodinin, against all cell lines were assayed by a modified MTT [3-(4,5-dimethylthiazole-2-yl)-2,5-diphenyltetrazolium bromide] […] After 3 days of incubation, the cell numbers for each of the cell lines were determined by the following MTT assay: 20 μl of 1 mg/ml of MTT were added to each well of the plates, and the plates were then incubated at 37° C. for 5 hours. Formazan crystals were redissolved in 100 μl of DMSO (Merck) for 10 minutes via shaking, and the plates were read immediately on an ELISA reader (Bio-Tek) at a wavelength of 540 nm (Mosmann, 1983).
For orientation: Formazan colour is commonly taken as a measure of viable cells.

In experiment [2] the test system is AGS (Human gastric adenocarcinoma). As to the kind of experiment: MTT assay, cytotoxic effect on AGS cells. The protocol:
as §1, §2, §3

The subject of experiment [3] is MRC-5 (embryonal lung, normal, human). As to the kind of experiment: MTT assay, cytotoxic effect on MRC-5 cells. As for the experimental part:
as §1, §2, §3

Experiment [4] relates to MCF-7 (human breast adenocarcinoma). Kind of experiment: MTT assay, cytotoxic effect on MCF-7 cells. The protocol: as §1, §2, §3
In experiment [5] the test system is HepG2 (Human hepatoblastoma). Kind of experiment: MTT assay, cytotoxic effect on HepG2 cells. The protocol:
as §1, §2, §3

Consider `[O-][n+]1c2cccc(O)c2[n+]([O-])c2cccc(O)c21` [iodinin, 1,6-phenazinediol 5,10-dioxide], for which the “percentage of cell survival” value in experiment [1] was found to be 26%; in experiment [2], 8%; in experiment [3], 47%; in experiment [4] it was 29%; in experiment [5], 40%.
